Results taken from US20180353460A1, “METHODS OF TREATING UROLOGICAL DISORDERS USING SARMs” (priority 2014, published 2018).
Values joined by “and” are separate entries in the source; they are usually repeats but may differ in a detail not shown here. Identical values can stand only once.

Tests used:
Format in all cases: in vivo, human
[1] = system: postmenopausal women with SUI; assay: Proof of concept clinical study: quality of life questionnaires (FSFI, UDI-6, IIQ-7, MESA, PGI-I, PGI-S)
Excerpt: (§1) Secondary Objectives: • To describe the effect of 12 weeks of treatment of Compound IX on the number of voids/day as assessed by the 3 days voiding diary. […] See Tables 2 (individual subject data) and Tables 4-6 (mean pad weight data for sites 1, 2, and 3, respectively), and FIG. 17 for mean and median reductions in pad weights from baseline to week 12 (across all sites). • To describe the effect of 12 weeks of treatment of Compound IX on SUI as assessed by the Urethral Pressure Profile (UPP). The UPP assessment was removed from the protocol because it is invasive and not standard of care. […] See summary data for all subjects across the 3 sites reported in Table 7 and FIGS. 13A and 13B. • Described is the effect of 12 weeks of treatment of Compound IX on subject reported impression of stress urinary incontinence severity as assessed by the Patient Global Impression of Severity Scale (PGI-S). See summary data for all subjects across the 3 sites reported in FIG. 12A. • Described is the effect of 12 weeks of treatment of Compound IX on subject reported impression of improvement as assessed by the Patient Global Impression of Improvement Scale (PGI-I). See summary data for all subjects across the 3 sites reported in FIG. 12B. • Described is the effect of 12 weeks of treatment of Compound IX on subject reported urogenital distress as assessed by the Urinary Distress Inventory Questionnaire (UDI-6). See summary data for all subjects across of 3 sites reported in Table 7 and FIG. 12C. • Described is the effect of 12 weeks of treatment of Compound IX on subject reported impact of urinary incontinence on daily life as assessed by the Incontinence Impact Questionnaire (IIQ-7). See summary data for all subjects across the 3 sites reported in Table 7 and FIG. 12D. • Described is the effect of 12 weeks of treatment of Compound IX on subject reported sexual function as indicated on the completion of the Female Sexual Function Index Questionnaire (FSFI). See summary data for all subjects across the 3 sites reported in Table 7 and FIG. 15. • Described is the effect of 12 weeks of treatment of Compound IX on pelvic floor muscles as measured by MRI. See FIG. 11 wherein the pelvic MRI for one representative subject on trial is reported at baseline and at 12 weeks, FIG. 16 wherein the pelvic MRI's for three representative subjects on trial are reported at baseline and at 12 weeks, and Example 19 and Table 13 which provide individual measurements of levator ani thickness, inner and outer diameter of the urethra, and endometrial thickness, and mean changes in the same from baseline to week 12.
The data were collected from 18 patients at 12 weeks. Data collection/analysis for additional secondary endpoints are ongoing. Women reported improved quality of life measurements in each of the five instruments collected in the study, including the Patient Global Impression of Improvement (PGI-I) and Female Sexual Function Index (FSFI). FIG. 15 provides the FSFI overall scores from baseline to 16 weeks.
The QOL measurements are described in greater detail above and are well-known and validated measures.

[2] = system: postmenopausal women with SUI; assay: Proof of concept clinical study: safety; conditions: 3 mg/day p.o., 12 weeks
Protocol: Described is the safety profile of Compound IX 3 mg PO daily in subjects with SUI. See Table 8 which is historical data from other clinical trials establishing the safety profile of Compound IX in human subjects. See also the lack of increase in endometrial thickness in Example 19.
For the PGI-S measure, 12 patients reported symptoms as “moderate” or “severe” at baseline; whereas only 3 patients reported “moderate” symptoms and no patients reported “severe” at 12 weeks (FIG. 12A).

[3] = system: postmenopausal women with SUI; assay: Proof of concept clinical study: 24 hour pad weight test; conditions: for Mean Pad Weights % Reduction: week 12
Excerpt: as §1
Reported herein are data for the first 18 patients at 12 weeks for the secondary endpoints of 24 hour pad weight test (Tables 2 and 4-6, and FIG. 17) and change in levator ani muscle, urethra, and endometrium for a selected subjects from Baseline to Week 12 as measured by quantitative MRI (FIGS. 11 and 16, Table 13 and Example 19). Data collection/analysis for these and additional secondary endpoints such as frequency of daily voids, urine volume per void, and bladder stress test is still ongoing.
Overall, the median pad weight decreased by 78%, from 31.07 grams at baseline to 6.97 grams at week 12; whereas mean pad weights decreased by 71% from 74.26 grams at baseline to 21.4 grams at week 12.

With `C[C@](O)(COc1ccc(C#N)cc1)C(=O)Nc1ccc(C#N)c(C(F)(F)F)c1` [Compound IX, (S)—N-(4-Cyano-3-(trifluoromethyl)phenyl)-3-(4-cyanophenoxy)-2-hydroxy-2-methylpropanamide] the “patients reporting moderate symptoms on PGI-S” value ([1]; 12 weeks, 12 patients moderate or severe at baseline, none severe at 12 weeks) was 3 patients, the “MESA Urge median score at 12 weeks” value ([1]; 18 patients, baseline 56) was 22 and the “MESA Stress median score at 12 weeks” value ([1]; 18 patients, baseline 79.5) was 44.5. The “UDI-6 median score at 12 weeks” value ([1]; scale range 0-100, baseline 45.83) was 31.25, the “IIQ-7 median score at 12 weeks” value ([1]; scale range 0-100, baseline 50.00) was 11.90 and the “FSFI median score at 12 weeks” value ([1]; scale range 2-36, baseline 15.90) was 28.05 and 28.00 and 28.20. For the same compound, the “patients with improved PGI-I scores” value ([1]; week 12) was 17 of 18, the SHBG [2] was “Reductions in SHBG” and the endometrial stripe thickness [2] was “No changes in endometrial stripe thickness”. The liver enzymes [2] was “Mild transient elevations in liver enzymes”, the serious adverse events [2] was “no serious adverse events reported” and the “total cholesterol, LDL, HDL and triglycerides” value [2] was “reductions in total cholesterol, LDL, HDL and triglycerides”. The “Mean Pad Weights % Reduction” value ([3]; Site 1 (n = 10)) was 77%, the “Mean Pad Weights % Reduction” value ([3]; Site 2 (n = 5)) was 66% and the “Mean Pad Weights % Reduction” value ([3]; Site 3 (n = 2)) was 74%. For the same compound, the “decrease of mean pad weight at week 12” value ([3]; all sites) was 71% and 78%, the “decrease of median pad weight at week 12” value ([3]; all sites) was 78% and 71% and the “median pad weight at week 12” value ([3]; baseline 31.07 grams) was 6.97 grams. The “mean pad weight at week 12” value ([3]; baseline 74.26 grams) was 21.4 grams, the “Pad Weights at Week 12” value ([3]; individual patients, 3 mg/day p.o., 24 hour pad weight) was 7.31 grams and 7.74 grams and 4.54 grams and 26.93 grams and 3.58 grams and −2.3 grams and 204.4 grams and 14.3 grams and 10.1 grams and 29 grams and 6.9 grams and 5.63 grams and 3.9 grams and 6.13 grams and 7.04 grams and 37.27 grams and 6.48 grams and 6.71 grams and the “% Reduction in pad weight (Week 12)” value ([3]; individual patients, week 12 vs baseline) was 88% and 55% and 52% and 45% and 98% (2×) and “126%” and 51% and 82% and 75% and 81% and 91% (2×) and 59% and 80% and 27%.
